Experimental data from ChEMBL document CHEMBL1134992, “Six-membered cyclic ureas as HIV-1 protease inhibitors: a QSAR study based on CODESSA PRO approach. Quantitative structure-activity relationships” (Bioorg Med Chem Lett, 2002).

Target: Human immunodeficiency virus type 1 protease (Human immunodeficiency virus 1, UniProt Q72874)
Assay: Inhibitory activity of compound against HIV-1 aspartyl protease.
Conditions: read-out: Log 1/Ki (converted)

CNc1cc(CN2C(=O)N(Cc3ccc(F)c(NC)c3)[C@H](Cc3ccccc3)[C@H](O)[C@H]2CCc2ccccc2)ccc1F
Ki: 4.91 nM
